Data as given in US8106197B2, “Aminoheteroaryl compounds as protein kinase inhibitors” (Pfizer Inc., priority 2003, dated 2012).

Target: T1, HGFR (Homo sapiens, UniProt P08581)
T1 construct: purchased Upstate 14-526
Assay: HGFR continuous-coupled spectrophotometric assay
Format: biochemical

T1 sequence (P08581 974-1390 limits assumed): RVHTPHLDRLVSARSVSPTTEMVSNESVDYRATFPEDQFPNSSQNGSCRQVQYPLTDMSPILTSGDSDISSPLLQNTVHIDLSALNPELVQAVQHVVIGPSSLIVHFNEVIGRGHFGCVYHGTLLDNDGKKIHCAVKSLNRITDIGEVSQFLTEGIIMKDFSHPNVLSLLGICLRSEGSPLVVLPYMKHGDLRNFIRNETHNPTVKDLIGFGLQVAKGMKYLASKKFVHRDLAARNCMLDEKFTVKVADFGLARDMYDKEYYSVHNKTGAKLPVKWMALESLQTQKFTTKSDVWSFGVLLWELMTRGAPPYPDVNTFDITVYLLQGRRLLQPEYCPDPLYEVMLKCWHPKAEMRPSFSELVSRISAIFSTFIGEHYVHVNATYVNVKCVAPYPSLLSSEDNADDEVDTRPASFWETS

Row | SMILES | % inhibition
1 | CC(C)(C)c1ccc(-c2noc(COc3cc(-c4ccc(C(=O)N5CCC(N6CCCC6)CC5)cc4)cnc3N)n2)cc1 | % inhibition = 36
2 | Cc1noc(C)c1-c1nc(COc2cc(-c3ccc(C(=O)N4CCC(N5CCCC5)CC4)cc3)cnc2N)no1 | % inhibition = 6
3 | COc1ccccc1-c1nc(COc2cc(-c3ccc(C(=O)N4CCC(N5CCCC5)CC4)cc3)cnc2N)no1 | % inhibition = 8
4 | Nc1ncc(-c2ccc(C(=O)N3CCC(N4CCCC4)CC3)cc2)cc1OCc1csc(-c2ccc(Cl)cc2)n1 | % inhibition = 9
5 | Cc1nc(COc2cc(-c3ccc(C(=O)N4CCC(N5CCCC5)CC4)cc3)cnc2N)cs1 | % inhibition = 6
6 | Nc1ncc(-c2ccc(C(=O)N3CCC(N4CCCC4)CC3)cc2)cc1OCc1noc(-c2cccc(C(F)(F)F)c2)n1 | % inhibition = 27
7 | Cn1c(COc2cc(-c3ccc(C(=O)N4CCC(N5CCCC5)CC4)cc3)cnc2N)nc2ccccc21 | % inhibition = 10
8 | Nc1ncc(-c2ccc(C(=O)N3CCC(N4CCCC4)CC3)cc2)cc1OCc1nc(-c2ccccn2)no1 | % inhibition = 9
9 | Nc1ncc(-c2ccc(C(=O)N3CCC(N4CCCC4)CC3)cc2)cc1OCc1c(F)ccc(F)c1Cl | % inhibition = 50
10 | Cc1ccc(COc2cc(-c3ccc(C(=O)N4CCC(N5CCCC5)CC4)cc3)cnc2N)c(F)c1F | % inhibition = 39
11 | Cc1ccc(F)c(COc2cc(-c3ccc(C(=O)N4CCC(N5CCCC5)CC4)cc3)cnc2N)c1F | % inhibition = 51
12 | Cc1cc(COc2cc(-c3ccc(C(=O)N4CCC(N5CCCC5)CC4)cc3)cnc2N)ccc1F | % inhibition = 27
13 | Cc1ccc(F)cc1COc1cc(-c2ccc(C(=O)N3CCC(N4CCCC4)CC3)cc2)cnc1N | % inhibition = 29
14 | Nc1ncc(-c2ccc(C(=O)N3CCC(N4CCCC4)CC3)cc2)cc1OCc1cccc(Br)c1 | % inhibition = 24
15 | Nc1ncc(-c2ccc(C(=O)N3CCC(N4CCCC4)CC3)cc2)cc1OCc1nc(N)c2ccccc2n1 | % inhibition = 15
16 | Nc1ncc(-c2ccc(C(=O)N3CCC(N4CCCC4)CC3)cc2)cc1OCc1cccnc1 | % inhibition = 17
17 | Nc1ncc(-c2ccc(C(=O)N3CCC(N4CCCC4)CC3)cc2)cc1OCc1ccccn1 | % inhibition = 16
18 | COc1c(C)cnc(COc2cc(-c3ccc(C(=O)N4CCC(N5CCCC5)CC4)cc3)cnc2N)c1C | % inhibition = 20
19 | Cc1onc(-c2ccccc2)c1COc1cc(-c2ccc(C(=O)N3CCC(N4CCCC4)CC3)cc2)cnc1N | % inhibition = 19
20 | Nc1ncc(-c2ccc(C(=O)N3CCC(N4CCCC4)CC3)cc2)cc1OCc1cn2cccnc2n1 | % inhibition = 16
21 | Cc1cc(C)n2nc(COc3cc(-c4ccc(C(=O)N5CCC(N6CCCC6)CC5)cc4)cnc3N)nc2n1 | % inhibition = 18
22 | Nc1ncc(-c2ccc(C(=O)N3CCC(N4CCCC4)CC3)cc2)cc1OCc1cccc2cccnc12 | % inhibition = 22
23 | Cn1nc(-c2ccccc2)c(COc2cc(-c3ccc(C(=O)N4CCC(N5CCCC5)CC4)cc3)cnc2N)c1Cl | % inhibition = 63

Row | SMILES | % inhibition
24 | Nc1ncc(-c2ccc(C(=O)N3CCC(N4CCCC4)CC3)cc2)cc1OCc1nc2ccccc2s1 | % inhibition = 17
25 | Cc1ccc(-c2nnc(COc3cc(-c4ccc(C(=O)N5CCC(N6CCCC6)CC5)cc4)cnc3N)o2)cc1 | % inhibition = 18
26 | Nc1ncc(-c2ccc(C(=O)N3CCC(N4CCCC4)CC3)cc2)cc1OCc1cc(-c2ccccc2)no1 | % inhibition = 23
27 | Cc1cc(COc2cc(-c3ccc(C(=O)N4CCC(N5CCCC5)CC4)cc3)cnc2N)no1 | % inhibition = 16
28 | Nc1ncc(-c2ccc(C(=O)N3CCC(N4CCCC4)CC3)cc2)cc1OCc1nnn[nH]1 | % inhibition = 14
29 | COC(=O)Nc1cc(COc2cc(-c3ccc(C(=O)N4CCC(N5CCCC5)CC4)cc3)cnc2N)on1 | % inhibition = 18
30 | Cn1ccnc1COc1cc(-c2ccc(C(=O)N3CCC(N4CCCC4)CC3)cc2)cnc1N | % inhibition = 14
31 | Cc1nc(COc2cc(-c3ccc(C(=O)N4CCC(N5CCCC5)CC4)cc3)cnc2N)n(C)n1 | % inhibition = 14
32 | Nc1ncc(-c2ccc(C(=O)N3CCC(N4CCCC4)CC3)cc2)cc1OCc1nc2cc(C(F)(F)F)ccc2s1 | % inhibition = 34
33 | Nc1ncc(-c2ccc(C(=O)N3CCC(N4CCCC4)CC3)cc2)cc1OCc1ccc2ccc(Cl)cc2n1 | % inhibition = 24
34 | Cc1oc(-c2ccccc2)nc1COc1cc(-c2ccc(C(=O)N3CCC(N4CCCC4)CC3)cc2)cnc1N | % inhibition = 19
35 | Nc1ncc(-c2ccc(C(=O)N3CCC(N4CCCC4)CC3)cc2)cc1OCc1nc2ncccn2n1 | % inhibition = 19
36 | Cc1cc(=O)n2nc(COc3cc(-c4ccc(C(=O)N5CCC(N6CCCC6)CC5)cc4)cnc3N)nc2[nH]1 | % inhibition = 18
37 | Nc1ncc(-c2ccc(C(=O)N3CCC(N4CCCC4)CC3)cc2)cc1OCc1nnnn1Cc1ccccc1 | % inhibition = 19
38 | Cc1cnc2nc(COc3cc(-c4ccc(C(=O)N5CCC(N6CCCC6)CC5)cc4)cnc3N)nn2c1 | % inhibition = 17
39 | Nc1ncc(-c2ccc(C(=O)N3CCC(N4CCCC4)CC3)cc2)cc1OCc1nc2ccc(Cl)cc2[nH]1 | % inhibition = 16
40 | Nc1ncc(-c2ccc(C(=O)N3CCC(N4CCCC4)CC3)cc2)cc1OCc1nc2cccnc2[nH]1 | % inhibition = 17
41 | Nc1ncc(-c2ccc(C(=O)N3CCC(N4CCCC4)CC3)cc2)cc1OCc1nc2ncccc2o1 | % inhibition = 17
42 | COc1cc(OC)nc(COc2cc(-c3ccc(C(=O)N4CCC(N5CCCC5)CC4)cc3)cnc2N)n1 | % inhibition = 20
43 | Cc1[nH]cnc1COc1cc(-c2ccc(C(=O)N3CCC(N4CCCC4)CC3)cc2)cnc1N | % inhibition = 12
44 | CCCCc1nc(COc2cc(-c3ccc(C(=O)N4CCC(N5CCCC5)CC4)cc3)cnc2N)c[nH]1 | % inhibition = 16
45 | COc1ccnc(COc2cc(-c3ccc(C(=O)N4CCC(N5CCCC5)CC4)cc3)cnc2N)c1OC | % inhibition = 23
46 | Nc1ncc(-c2ccc(C(=O)N3CCC(N4CCCC4)CC3)cc2)cc1OCc1cn2cc(Cl)ccc2n1 | % inhibition = 16

Row | SMILES | % inhibition
47 | Cc1cccnc1COc1cc(-c2ccc(C(=O)N3CCC(N4CCCC4)CC3)cc2)cnc1N | % inhibition = 16
48 | Cc1ccn2cc(COc3cc(-c4ccc(C(=O)N5CCC(N6CCCC6)CC5)cc4)cnc3N)nc2c1 | % inhibition = 18
49 | Cc1oc(-c2ccc(F)cc2)nc1COc1cc(-c2ccc(C(=O)N3CCC(N4CCCC4)CC3)cc2)cnc1N | % inhibition = 17
50 | Cc1cccc(COc2cc(-c3ccc(C(=O)N4CCC(N5CCCC5)CC4)cc3)cnc2N)n1 | % inhibition = 17
51 | Cc1cc(C)nc(COc2cc(-c3ccc(C(=O)N4CCC(N5CCCC5)CC4)cc3)cnc2N)n1 | % inhibition = 16
52 | COc1ccccc1-c1nc(COc2cc(-c3ccc(C(=O)N4CCC(N5CCCC5)CC4)cc3)cnc2N)c(C)o1 | % inhibition = 19
53 | CCc1ccc(COc2cc(-c3ccc(C(=O)N4CCC(N5CCCC5)CC4)cc3)cnc2N)nc1 | % inhibition = 15
54 | Cc1oc(-c2cccc(F)c2)nc1COc1cc(-c2ccc(C(=O)N3CCC(N4CCCC4)CC3)cc2)cnc1N | % inhibition = 8
55 | Cn1nc(C(F)(F)F)c2cc(COc3cc(-c4ccc(C(=O)N5CCC(N6CCCC6)CC5)cc4)cnc3N)sc21 | % inhibition = 14
56 | Nc1ncc(-c2ccc(C(=O)N3CCC(N4CCCC4)CC3)cc2)cc1OCc1cc(-c2ccc(Cl)cc2)no1 | % inhibition = 23
57 | Cn1nc(CC2CC2)nc1COc1cc(-c2ccc(C(=O)N3CCC(N4CCCC4)CC3)cc2)cnc1N | % inhibition = 7
58 | N#Cc1nc(COc2cc(-c3ccc(C(=O)N4CCC(N5CCCC5)CC4)cc3)cnc2N)cnc1N | % inhibition = 9
59 | Cn1nc(-c2ccccc2)nc1COc1cc(-c2ccc(C(=O)N3CCC(N4CCCC4)CC3)cc2)cnc1N | % inhibition = 5
60 | Cn1nc(C2CC2)nc1COc1cc(-c2ccc(C(=O)N3CCC(N4CCCC4)CC3)cc2)cnc1N | % inhibition = 5
61 | Cc1ccnc2nc(COc3cc(-c4ccc(C(=O)N5CCC(N6CCCC6)CC5)cc4)cnc3N)cn12 | % inhibition = 10
62 | Nc1ncc(-c2ccc(C(=O)N3CCC(N4CCCC4)CC3)cc2)cc1OCc1ncccn1 | % inhibition = 9
63 | CCc1ccn2cc(COc3cc(-c4ccc(C(=O)N5CCC(N6CCCC6)CC5)cc4)cnc3N)nc2c1 | % inhibition = 9
64 | Nc1nc(COc2cc(-c3ccc(C(=O)N4CCC(N5CCCC5)CC4)cc3)cnc2N)nc(Nc2ccccc2)n1 | % inhibition = 9
65 | Nc1ncc(-c2ccc(C(=O)N3CCC(N4CCCC4)CC3)cc2)cc1OCc1nccn1Cc1ccccc1 | % inhibition = 8
66 | N#Cc1ccc(COc2cc(-c3ccc(C(=O)N4CCC(N5CCCC5)CC4)cc3)cnc2N)cc1 | % inhibition = 8
67 | Nc1ncc(-c2ccc(C(=O)N3CCC(N4CCCC4)CC3)cc2)cc1COc1ccc2ccccc2c1 | % inhibition = 27
68 | N#Cc1cccc(COc2cc(-c3ccc(C(=O)N4CCC(N5CCCC5)CC4)cc3)cnc2N)c1 | % inhibition = 12
69 | Nc1ncc(-c2ccc(C(=O)N3CCC(N4CCCC4)CC3)cc2)cc1OCc1ccc(F)cc1F | % inhibition = 18
